# Experimental data as given in publication PMC4667271, “Discovery of a Novel Inhibitor of the Protein Tyrosine Phosphatase Shp2” (Scientific Reports, 2015).
# How the values were obtained:
# [1] = biological target: T1, full-length Shp2 (Shp2 FL) (Homo sapiens, UniProt Q06124); experiment: in vitro PTP assay (pNPP), full-length Shp2; type: biochemical; conditions: full-length Shp2 (Shp2 FL)
# T1 sequence (Q06124 1-593): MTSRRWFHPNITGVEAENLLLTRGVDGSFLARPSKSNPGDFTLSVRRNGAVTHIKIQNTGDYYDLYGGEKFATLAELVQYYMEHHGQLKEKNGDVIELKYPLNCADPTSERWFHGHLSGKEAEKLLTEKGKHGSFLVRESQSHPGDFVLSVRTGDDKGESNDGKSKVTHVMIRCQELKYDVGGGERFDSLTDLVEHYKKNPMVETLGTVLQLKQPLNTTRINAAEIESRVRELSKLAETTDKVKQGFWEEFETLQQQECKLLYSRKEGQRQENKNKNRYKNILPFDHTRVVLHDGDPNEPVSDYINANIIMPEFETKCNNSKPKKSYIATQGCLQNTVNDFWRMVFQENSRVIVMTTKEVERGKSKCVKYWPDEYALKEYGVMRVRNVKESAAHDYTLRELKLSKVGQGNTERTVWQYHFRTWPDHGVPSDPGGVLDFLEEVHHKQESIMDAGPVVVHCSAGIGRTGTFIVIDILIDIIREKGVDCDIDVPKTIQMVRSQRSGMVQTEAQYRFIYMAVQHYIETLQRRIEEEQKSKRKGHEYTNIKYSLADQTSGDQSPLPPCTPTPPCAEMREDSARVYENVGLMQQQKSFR
# Method: (§1) Plasmids for expression of His-tag fusion proteins of human PTP were constructed in PET-28a by PCR subcloning techniques. The constructions contain only the PTP domain except Full-length Shp2. Full-length Shp2 containing Tyr279-to-Ala mutant was generated by PCR-based mutagenesis. All constructs were verified by DNA sequencing. PTP-His fusion proteins were expressed in Escherichia coli BL21 and lysed in the buffer (50 mM NaH2PO4, 300 mM NaCl, 250 mM imidazole, 1 mM dithiothreitol plus 5% glycerol), purified with Ni-NTA Magnetic Agarose Beads (Qiagen). The His-tag recombinant purification protocol was carried out according to the purification under native conditions of the QIAexpress System.
# (§2) The assay was set in wells of 96-well plate with a final volume of 100 μl of reaction mixture containing 10 mM of NaAc-HAc, 1 mM of ethylene diamine tetraacetic acid, 1 mM of DL-dithiothreitol and 2% of dimethyl sulfoxide, pH 5.5. Activity of the enzyme was assayed by incubating recombinant PTP protein or mutant PTP with various concentrations of Fumos in the mixture at 37 °C for 30 min. Absorbance at 405 nm was detected immediately after addition of varied concentrations of substrate, p-nitrophenyl phosphate (pNPP) to each corresponding well.
# [2] = biological target: T2, Shp2 PTP domain (Homo sapiens, UniProt Q06124); experiment: in vitro PTP assay (pNPP), Shp2 PTP domain; type: biochemical; conditions: Shp2 PTP domain; pNPP; mean ± S.E.M., triplicate; read-out: IC50
# T2 sequence (Q06124 247-517 limits assumed): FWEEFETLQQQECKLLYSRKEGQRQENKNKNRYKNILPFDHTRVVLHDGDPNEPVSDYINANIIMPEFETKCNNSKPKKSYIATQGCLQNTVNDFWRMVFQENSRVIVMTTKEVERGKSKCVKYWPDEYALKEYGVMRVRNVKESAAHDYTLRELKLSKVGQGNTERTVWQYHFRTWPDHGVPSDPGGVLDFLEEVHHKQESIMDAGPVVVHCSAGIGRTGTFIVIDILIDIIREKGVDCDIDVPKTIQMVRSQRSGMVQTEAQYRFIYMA
# Method: as §1, §2
# [3] = system: ERK1/2 activation in HEK293T cells expressing H-RasV12; experiment: RasV12-induced ERK1/2 activation in transfected HEK293T; type: cell-based, human; conditions: Fumos 20 μM or U0126 10 μM, 24 h
# Method: DMSO treatment as control. […] (c) Fumos inhibits EGF-induced Ras activation.
# HEK293T, MDA-MB-231and HeLa cell lines were obtained from CRC/PUMC. Cell lines were maintained in Dulbecco’s modified Eagle’s medium supplemented with 10% fetal bovine serum. Transfections were performed in 6-well plates according to manufacturer (Invitrogen Lipofectamine LTX).Briefly, for transient transfection of HEK293T cells, subconfluent cells in 6-well plates were incubated with 2 ml of Dulbecco’s modified Eagle’s medium containing 2.5 μg of total DNA and 7.5 μl of each Lipofectamine and Plus reagent (Invitrogen) and then serum-starved in DMEM/0.1% bovine serum albumin for 18 h. After Fumos treatment for 24 h, cells were stimulated for 5 min with 20 ng/ml EGF.
# After centrifugation, the supernatant was collected.
IC50 [1] [µM],IC50 [2] [µM],SMILES,RasV12-induced ERK1/2 activation [3]
630,620,"[Na+].[Na+].[Na+].[O]=[V]([O-])([O-])[O-] [sodium orthovanadate, reference compound]",
,,"N#CC(=C(/N)Sc1ccccc1N)/C(C#N)=C(/N)Sc1ccccc1N [U0126, reference compound]",blocked ERK1/2 phosphorylation
